This note sets out measurements from patent US11370774B2, “Substituted benzofuran, benzopyrrole, benzothiophene, and structurally related complement inhibitors” (BioCryst Pharmaceuticals, Inc., priority 2018, dated 2022).

For this test, the target named is Factor D (Homo sapiens (Human), UniProt P00746). The test is described as follows: Factor D esterolytic assay (Z-Lys-SBzl substrate, DTNB, 405 nm). Type of test: biochemical. The note with it: Z-Lys-SBzl 1.29 mM, pH 7.5, 10% DMSO, tested a minimum of three times, read-out: Measured Ki (IC50) Value for Compounds: IC50. The protocol: The IC50 value of a compound (i.e., the concentration of the compound that inhibits 50% of the enzymatic activity) was calculated according to the procedure reported in U.S. Pat. No. 6,653,340 B1, e.g., column 74 (incorporated by reference).
Sequence of Factor D (P00746 26-253): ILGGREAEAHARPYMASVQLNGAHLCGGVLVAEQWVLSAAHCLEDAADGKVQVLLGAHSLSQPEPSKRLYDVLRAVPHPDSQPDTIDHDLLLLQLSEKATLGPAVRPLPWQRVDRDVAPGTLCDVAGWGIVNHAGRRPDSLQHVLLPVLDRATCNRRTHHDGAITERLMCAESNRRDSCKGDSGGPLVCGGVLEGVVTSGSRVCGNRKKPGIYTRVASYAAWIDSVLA
Specifically, the compounds were dissolved in a stock solution of DMSO at 10.0 or 100 mM. A portion of this stock solution was added to assay buffer in a final volume of 50 μL. Controls included buffer alone and enzyme solutions to which DMSO was added. Substrate was added to the reaction wells immediately or after incubation at room temperature. The reaction rates were measured spectrophotometrically by the generation of product at 405 nm for 600 sec. Background absorbance at 690 nm was measured and subtracted from the absorbance at 405 nm for each well.
The reaction rate for enzyme alone was compared to the rate of enzyme in the presence of inhibitor and the percent inhibition was calculated as shown below: Percent Inhibition=[Rate without inhibitor−Rate with inhibitor)/(Rate without inhibitor)]×100 Factor D Esterolytic Assay:
An established esterolytic assay for the measurement of Factor D activity and inhibition of Factor D activity was used (Kam, C. M.; McRae, B. J.; Harper, J. W.; Niemann, M. A.; Volanakis, J. E.; Powers, J. C. Human complement proteins D, C2, and B Active site mapping with peptide thioester substrates. J Biol. Chem. 1987, 262, 3444-3451). For this assay Z-Lys-SBzl, 1.29 mM (Kim, S.; Narayana, S. V. L; Volanakis, J. E. Mutational analysis of the substrate binding site of human complement Factor D. Biochemistry. 1994, 33, 14393-14399.) was used as the substrate for Factor D ([…]). Hydrolysis of this compound by Factor D liberated a free sulfhydryl group which is then reacted with 5,5′-dithiobis(2nitrobenzoic acid) producing an intense yellow color (Habeeb, A. F. S. A. Reaction of protein sulfhydryl groups with Ellman's Reagent. Methods in Enzymol. 1976, 25, 457-464). The assays were performed in 96 well microtiter plates and rates of hydrolysis were monitored at 405 nm on a Biotek Synergy H1 plate reader. Hydrolysis rates were reported as change in mOD/min. The assay was conducted in 100 mM HEPES, 500 mM NaCl, pH 7.5 containing 10% DMSO in a final volume of 50 μL per well.
An IC50, a compound concentration which inhibits 50% of the enzymatic activity, was calculated. Compounds in the examples were tested a minimum of three times.
As to `CCOC(=O)Cc1ccccc1NC(=O)c1cc(-c2cccc(CN)c2)c2cn(CC3CC3)nc2c1` [Compound 11a, ethyl 2-(2-(4-(3-(aminomethyl)phenyl)-2-(cyclopropylmethyl)-2H-indazole-6-carboxamido)phenyl)acetate], the IC50 (in general, the midpoint of a concentration-inhibition curve) was greater than 10000 nM. Under `NCc1cccc(-c2cc(C(=O)Nc3ccccc3CC(=O)O)cc3nn(CC4CC4)cc23)c1` [Compound 11b, 2-(2-(4-(3-(aminomethyl)phenyl)-2-(cyclopropylmethyl)-2H-indazole-6-carboxamido)phenyl)acetic acid] stands less than 1000 nM; under `NCc1nccc(-c2cc(COc3ccccc3CC(=O)O)cc3[nH]ccc23)c1F` [Compound 12c, 2-(2-((4-(2-(aminomethyl)-3-fluoropyridin-4-yl)-1H-indol-6-yl)methoxy)phenyl)acetic acid], less than 1000 nM; under `NCc1cccc(-c2cc(C(=O)Nc3ccccc3CC(=O)O)cc3cccnc23)c1` [Compound 13c, 2-(2-(8-(3-(aminomethyl)phenyl)quinoline-6-carboxamido)phenyl)acetic acid], 1000 to 10000 nM. Next, `CCOC(=O)Cc1ccccc1NC(=O)c1cc(-c2cccc(CN)c2)c2cc[nH]c2n1` [Compound 14c, ethyl 2-(2-(4-(3-(aminomethyl)phenyl)-1H-pyrrolo[2,3-b]pyridine-6-carboxamido)phenyl)acetate]: greater than 10000 nM; `NCc1cccc(-c2cc(C(=O)Nc3ccccc3CC(=O)O)nc3[nH]ccc23)c1` [Compound 14d, 2-(2-(4-(3-(aminomethyl)phenyl)-1H-pyrrolo[2,3-b]pyridine-6-carboxamido)phenyl)acetic acid]: 1000 to 10000 nM; `CCOC(=O)Cc1ccccc1NC(=O)c1cc(-c2cccc(CN)c2)c2occc2c1` [Compound 15c, ethyl 2-(2-(7-(3-(aminomethyl)phenyl)benzofuran-5-carboxamido)phenyl)acetate]: greater than 10000 nM. Under `NCc1cccc(-c2cc(C(=O)Nc3ccccc3CC(=O)O)cc3ccoc23)c1` [Compound 15d, 2-(2-(7-(3-(aminomethyl)phenyl)benzofuran-5-carboxamido)phenyl)acetic acid] stands less than 1000 nM.

As to `NCc1cccc(-c2nc(C(=O)Nc3ccccc3CC(=O)O)nc3c2ccn3CC2CC2)c1` [Compound 16i, 2-(2-(4-(3-(aminomethyl)phenyl)-7-(cyclopropylmethyl)-7H-pyrrolo[2,3-d]pyrimidine-2-carboxamido)phenyl)acetic acid], the IC50 was less than 1000 nM. For the compound `NCc1cccc(-c2cc(C(=O)Nc3ccccc3CC(=O)O)cn3cnnc23)c1` [Compound 17c, 2-(2-(8-(3-(aminomethyl)phenyl)-[1,2,4]triazolo[4,3-a]pyridine-6-carboxamido)phenyl)acetic acid], the IC50 was greater than 10000 nM. As for `NCc1cccc(-c2cc(C(=O)Nc3ccccc3CC(=O)O)cc3ccccc23)c1` [Compound 18f, 2-(2-(4-(3-(aminomethyl)phenyl)-2-naphthamido)phenyl)acetic acid], the IC50 was less than 1000 nM.

`NCc1cc(F)cc(-c2cc(C(=O)Nc3ccccc3CC(=O)O)cc3[nH]ccc23)c1` [Compound 19c, 2-(2-(4-(3-(aminomethyl)-5-fluorophenyl)-1H-indole-6-carboxamido)phenyl)acetic acid]: the IC50 is less than 1000 nM. Next, `NCc1cccc(-c2cc(C(=O)Nc3ccccc3CC(=O)O)c3ncnn3c2)c1` [Compound 20e, 2-(2-(6-(3-(aminomethyl)phenyl)-[1,2,4]triazolo[1,5-a]pyridine-8-carboxamido)phenyl)acetic acid]: greater than 10000 nM. As to `NCc1cc(F)cc(-c2nc(C(=O)Nc3ccccc3CC(=O)O)c3cccn3n2)c1` [Compound 21d, 2-(2-(2-(3-(aminomethyl)-5-fluorophenyl)pyrrolo[2,1-f][1,2,4]triazine-4-carboxamido)phenyl)acetic acid], the IC50 is less than 1000 nM. Take `NCc1cccc(-c2cc(COc3ccccc3CC(=O)O)cc3ccoc23)c1` [Compound 23e, 2-(2-((7-(3-(aminomethyl)phenyl)benzofuran-5-yl)methoxy)phenyl)acetic acid]: the IC50 is less than 1000 nM. With `NCc1cccc(-c2cc(COc3ccccc3CC(=O)O)cc3oc(Cl)cc23)c1F` [Compound 24b, 2-(2-((4-(3-(aminomethyl)-2-fluorophenyl)-2-chlorobenzofuran-6-yl)methoxy)phenyl)acetic acid], the IC50 was less than 1000 nM. Next, `CCOC(=O)Cc1ccccc1OCc1nc(-c2cccc(CN)c2)nn2cccc12` [Compound 25c, ethyl 2-(2-((2-(3-(aminomethyl)phenyl)pyrrolo[2,1-f][1,2,4]triazin-4-yl)methoxy)phenyl)acetate]: 1000 to 10000 nM; `NCc1cccc(-c2nc(COc3ccccc3CC(=O)O)nc3c2ccn3CC2CC2)c1` [Compound 26d, 2-(2-((4-(3-(aminomethyl)phenyl)-7-(cyclopropylmethyl)-7H-pyrrolo[2,3-d]pyrimidin-2-yl)methoxy)phenyl)acetic acid]: less than 1000 nM; `NCc1cccc(-c2cc(C(=O)Nc3ccccc3CC(=O)O)c3nccn3n2)c1` [Compound 27f, 2-(2-(6-(3-(aminomethyl)phenyl)imidazo[1,2-b]pyridazine-8-carboxamido)phenyl)acetic acid]: greater than 10000 nM. As for `NCc1cccc(-c2nc(C(=O)Nc3ccccc3CC(=O)O)cc3ccoc23)c1` [Compound 28d, 2-(2-(7-(3-(aminomethyl)phenyl)furo[2,3-c]pyridine-5-carboxamido)phenyl)acetic acid], the IC50 is less than 1000 nM. Under `C[C@H](N)c1cccc(-c2nc(C(=O)Nc3ccccc3CC(=O)O)c3cccn3n2)c1` [Compound 29d, (S)-2-(2-(2-(3-(1-aminoethyl)phenyl)pyrrolo[2,1-f][1,2,4]triazine-4-carboxamido)phenyl)acetic acid] stands 1000 to 10000 nM; under `Cc1nc2cc(C(=O)Nc3ccccc3CC(=O)O)cc(-c3cccc(CN)c3)c2n1C` [Compound 30d, 2-(2-(7-(3-(aminomethyl)phenyl)-1,2-dimethyl-1H-benzo[d]imidazole-5-carboxamido)phenyl)acetic acid], greater than 10000 nM; under `NCc1cccc(-c2nc(C(=O)Nc3ccccc3CC(=O)O)nc3ccsc23)c1` [Compound 31f, 2-(2-(4-(3-(aminomethyl)phenyl)thieno[3,2-d]pyrimidine-2-carboxamido)phenyl)acetic acid], less than 1000 nM. Take `NCc1cccc(-c2nc(C(=O)Nc3ccccc3CC(=O)O)nc3sccc23)c1` [Compound 32h, 2-(2-(4-(3-(aminomethyl)phenyl)thieno[2,3-d]pyrimidine-2-carboxamido)phenyl)acetic acid]: the IC50 was less than 1000 nM. Under `C[C@@H](N)c1cccc(-c2nc(C(=O)Nc3ccccc3CC(=O)O)c3cccn3n2)c1F` [Compound 33f, (R)-2-(2-(2-(3-(1-aminoethyl)-2-fluorophenyl)pyrrolo[2,1-f][1,2,4]triazine-4-carboxamido)phenyl)acetic acid] stands less than 1000 nM; under `NCc1cccc(-c2nc(C(=O)Nc3ccccc3CC(=O)O)c3cccn3n2)c1F` [Compound 34f, 2-(2-(2-(3-(aminomethyl)-2-fluorophenyl)pyrrolo[2,1-f][1,2,4]triazine-4-carboxamido)phenyl)acetic acid], less than 1000 nM; under `NCc1cccc(-c2nc(C(=O)Nc3ccccc3CC(=O)O)cc3ccncc23)c1` [Compound 35f, 2-(2-(1-(3-(aminomethyl)phenyl)-2,7-naphthyridine-3-carboxamido)phenyl)acetic acid], 1000 to 10000 nM. Regarding `NCc1cccc(-c2nc(C(=O)Nc3ccccc3CC(=O)O)nc3ccoc23)c1` [Compound 36h, 2-(2-(4-(3-(aminomethyl)phenyl)furo[3,2-d]pyrimidine-2-carboxamido)phenyl)acetic acid], the IC50 is less than 1000 nM. On to `NCc1cccc(-c2cc(C(=O)Nc3ccccc3CC(=O)O)cc3[nH]ccc23)c1F` [Compound 37c, 2-(2-(4-(3-(aminomethyl)-2-fluorophenyl)-1H-indole-6-carboxamido)phenyl)acetic acid], for which the IC50 is less than 1000 nM. For `NCc1coc2c(-c3cc(COc4ccccc4CC(=O)O)cc4ccoc34)cccc12` [Compound 38f, 2-(2-((3′-(aminomethyl)-[7,7′-bibenzofuran]-5-yl)methoxy)phenyl)acetic acid], the IC50 is less than 1000 nM.
